In general, IC50 refers to the concentration that gives 50% inhibition. A low value points to greater potency.

Counter-ions that a name gives are not always drawn.

This passage reports IC50 results from patent publication US20170107212A1, “NOVEL COMPOUNDS” (Bayer Pharma Aktiengesellschaft, priority 2014, published 2017).

The test system of test [1] is HCT116 FOPFlash. The test can be described thus: Control reporter assay, HCT116 FOP control vector (non-functional TCF elements), luciferase expression. The format is cell-based. The conditions noted are these: HCT116 FOP control reporter cells, 36 hours incubation, dilution series 50 μM to 15 nM. How it is done: In a parallel approach, HCT116 cells were cotransfected with the FOP control vector and pcDNA3. The FOP vector is identical to the TOP construct, but it contains instead of functional TCF elements a randomized, non-functional sequence. For this transfection a stable transfected cell line was generated as well.
(§1) In preparation of the assay, the two cell lines were plated 24 hours before at 10000 cells per well of a 384 micro titre plate (MTP) in 30 μL growth medium. Selective inhibitory activity for small molecules on the mutated Wnt pathway was determined after parallel incubation of both (TOP and FOP) HCT116 reporter cell lines with a compound dilution series from 50 μM to 15 nM in steps of 3.16-fold dilutions in CAFTY buffer (130 mM NaCl, 5 mM KCl, 20 mM HEPES, 1 mM MgCl2, 5 mM NaHCO3, pH 7.4) containing 2 mM Ca^2+ and 0.01% BSA. The compounds were thereby serially prediluted in 100% DMSO and thereafter in addition 50 fold into the CAFTY compound dilution buffer (described above). From this dilution 10 μL were added to the cells in 30 μL growth medium and incubated for 36 hours at 37° C. and 5% CO2. Thereafter luciferase assay buffer (1:1 mixture of luciferase substrate buffer (20 mM Tricine, 2.67 mM MgSO4, 0.1 mM EDTA, 4 mM DTT, 270 μM Coenzyme A, 470 μM Luciferin, 530 μM ATP, ph adjusted to pH 7.8 with a sufficient volume of 5M NaOH) and Triton buffer (30 mL Triton X-100, 115 mL glycerol, 308 mg Dithiothreitol, 4.45 g Na2HPO4.2H2O, 3.03 g TRIS HCl, ad 1 l H20, pH 7.8) was added as equal volume to the compound solution on the cells to determine luciferase expression as a measure of Wnt signaling activity in a luminometer.

Test [2] relates to constitutive active colorectal cancer cell (CRC) Wnt pathway, HCT116 TOPFlash. The test can be described thus: Cellular reporter assay, HCT116 Super TopFlash (constitutive active Wnt pathway), luciferase expression. In kind it is cell-based. The conditions noted are these: HCT116 Super TopFlash reporter cells, 36 hours incubation, dilution series 50 μM to 15 nM. How it is done: In order to discover and characterize small molecules which inhibit the constitutive active colorectal cancer cell (CRC) Wnt pathway, a cellular reporter assay was employed. The corresponding assay cell was generated by transfection of the colorectal cancer cell line HCT116 (ATCC, #CCL-247) with the Super TopFlash vector (Morin, Science 275, 1997, 1787-1790; Molenaar et al., Cell 86 (3), 1996, 391-399). The HCT116 cell line is cultivated at 37° C. and 5% CO2 in DMEM/F-12 (Life Technologies, #11320-074), supplemented with 2 mM glutamine, 20 mM HEPES, 1.4 mM pyruvate, 0.15% Na-bicarbonate and 10% foetal bovine serum (GIBCO, #10270), this cancer cell line is pathophysiological relevant since it carries a deletion of position S45 in the β-catenin gene, leading to constitutive active Wnt signaling. Stable transfectants were generated by cotransfection with pcDNA3 and selection of stable transfected cells with 1 mg/ml G418.
as §1

With `CN1CCN(CC(=O)Nc2cc(C(=O)Nc3nnc(-c4cccnc4)s3)ccc2OC2CC2)CC1` [Example 34, 4-(cyclopropyloxy)-3-{[(4-methylpiperazin-1-yl)acetyl]amino}-N-[5-(pyridin-3-yl)-1,3,4-thiadiazol-2-yl]benzamide], the half-inhibitory concentration (IC50) was 14000 nM in test [1] (Homo sapiens, HCT-116, 36 h) and 380 nM in test [2] (Homo sapiens, HCT-116, 36 h).

Take `O=C(CN1CCOCC1)Nc1cc(C(=O)Nc2nnc(-c3cccnc3)s2)ccc1OC1CC1` [Example 35, 4-(cyclopropyloxy)-3-[(morpholin-4-ylacetyl)amino]-N-[5-(pyridin-3-yl)-1,3,4-thiadiazol-2-yl]benzamide]: the IC50 in test [1] (Homo sapiens, HCT-116, 36 h) is at least 50000 nM; in test [2] (Homo sapiens, HCT-116, 36 h) it was 278 nM.

For the compound `Cc1ccncc1-c1nnc(NC(=O)c2ccc(OC(F)(F)F)c(NC(=O)CN3CCN(C)CC3)c2)s1` [Example 36, 3-{[(4-methylpiperazin-1-yl)acetyl]amino}-N-[5-(4-methylpyridin-3-yl)-1,3,4-thiadiazol-2-yl]-4-(trifluoromethoxy)benzamide hydrochloride (1:1)], the IC50 in test [1] (Homo sapiens, HCT-116, 36 h) was at least 50000 nM; in test [2], 60 nM.

As for `Cc1ccncc1-c1nnc(NC(=O)c2ccc(OC(F)(F)F)c(NC(=O)CN3CCN(C)CC3)c2)s1` [Example 37, 3-{[(4-methylpiperazin-1-yl)acetyl]amino}-N-[5-(4-methylpyridin-3-yl)-1,3,4-thiadiazol-2-yl]-4-(trifluoromethoxy)benzamide], the IC50 in test [1] is at least 50000 nM; in test [2] it was 610 nM.

`CN1CCN(CC(=O)Nc2cc(C(=O)Nc3nnc(-c4ccc(N)nc4)s3)ccc2OC(F)(F)F)CC1` [Example 38, N-[5-(6-aminopyridin-3-yl)-1,3,4-thiadiazol-2-yl]-3-{[(4-methylpiperazin-1-yl)acetyl]amino}-4-(trifluoromethoxy)benzamide]: the IC50 is at least 50000 nM in test [1] (Homo sapiens, HCT-116, 36 h) and 268 nM in test [2] (Homo sapiens, HCT-116, 36 h).

For `Cc1cncc(-c2nnc(NC(=O)c3ccc(OC(F)(F)F)c(NC(=O)CN4CCN(C)CC4)c3)s2)c1` [Example 39, 1-methyl-4-(2-{[5-{[5-(5-methylpyridin-3-yl)-1,3,4-thiadiazol-2-yl]carbamoyl}-2-(trifluoromethoxy)phenyl]amino}-2-oxoethyl)piperazin-1-ium hexafluorophosphate], the IC50 in test [1] (Homo sapiens, HCT-116) was at least 50000 nM; in test [2] (Homo sapiens, HCT-116), 85.8 nM.

With `CN1CCN(CC(=O)Nc2cc(C(=O)Nc3nnc(-c4cncc(Cl)c4)s3)ccc2OC(F)(F)F)CC1` [Example 40, formic acid-N-[5-(5-chloropyridin-3-yl)-1,3,4-thiadiazol-2-yl]-3-{[(4-methylpiperazin-1-yl)acetyl]amino}-4-(trifluoromethoxy)benzamide (1:1)], the IC50 in test [1] (Homo sapiens, HCT-116, 36 h) was at least 50000 nM; in test [2] (Homo sapiens, HCT-116, 36 h) it was 114 nM.

As for `Cc1nccnc1-c1nnc(NC(=O)c2ccc(OC(F)(F)F)c(NC(=O)CN3CCN(C)CC3)c2)s1` [Example 41, 1-methyl-4-(2-{[5-{[5-(3-methylpyrazin-2-yl)-1,3,4-thiadiazol-2-yl]carbamoyl}-2-(trifluoromethoxy)phenyl]amino}-2-oxoethyl)piperazin-1-ium hexafluorophosphate], the IC50 was at least 50000 nM in test [1] (Homo sapiens, HCT-116) and 860 nM in test [2] (Homo sapiens, HCT-116).

Take `Cc1cccnc1-c1nnc(NC(=O)c2ccc(OC(F)(F)F)c(NC(=O)CN3CCN(C)CC3)c2)s1` [Example 42, 1-methyl-4-(2-{[5-{[5-(3-methylpyridin-2-yl)-1,3,4-thiadiazol-2-yl]carbamoyl}-2-(trifluoromethoxy)phenyl]amino}-2-oxoethyl)piperazin-1-ium hexafluorophosphate]: the IC50 in test [1] (Homo sapiens, HCT-116) was found to be 38500 nM; in test [2] (Homo sapiens, HCT-116), 320 nM.

`CN1CCN(CC(=O)Nc2cc(C(=O)Nc3nnc(-c4ncccc4F)s3)ccc2OC(F)(F)F)CC1` [Example 43, 4-(2-{[5-{[5-(3-fluoropyridin-2-yl)-1,3,4-thiadiazol-2-yl]carbamoyl}-2-(trifluoromethoxy)phenyl]amino}-2-oxoethyl)-1-methylpiperazin-1-ium hexafluorophosphate]: the IC50 in test [1] (Homo sapiens, HCT-116) amounted to 32000 nM; in test [2] (Homo sapiens, HCT-116), 2000 nM.
